Molecules are shown by their SMILES.

For one series, the system named is P. aeruginosa PAO1. As to the kind of experiment: Compound intracellular accumulation in P. aeruginosa PAO1. The series is classed as cell-based. The note with it: ‡ treatment with 15 µM compound.
Turning to `O=C1NC(=O)c2c(NCc3cc(Cl)ccc3O)ccc(Br)c21` [SB-16-51], the “Intracell. Accum, P. aeruginosa PAO1” value came out at 425 ± 79 nmol/1012 CFU.

As to `O=C1NC(=O)c2c(NCc3cc(Br)c(F)cc3O)cccc21` [SB-16-112], the “Intracell. Accum, P. aeruginosa PAO1” value was determined as 457 ± 22 nmol/1012 CFU.

Take `O=C1NC(=O)c2c(NCc3cc(Br)ccc3O)ccc(Cl)c21` [SB-16-124]: the “Intracell. Accum, P. aeruginosa PAO1” value was 558 ± 154 nmol/1012 CFU.

Take `Cc1cc(Cl)cc(CNc2cccc3c2C(=O)NC3=O)c1O` [SB-16-156]: the “Intracell. Accum, P. aeruginosa PAO1” value worked out at 165 ± 18 nmol/1012 CFU.

For the molecule `Cc1cc(Br)cc(CNc2cccc3c2C(=O)NC3=O)c1O` [SB-16-106], the “Intracell. Accum, P. aeruginosa PAO1” value is reported as 415 ± 141 nmol/1012 CFU.

Take `Cc1cc(CNc2cccc3c2C(=O)NC3=O)c(O)cc1Br` [SB-16-183]: the “Intracell. Accum, P. aeruginosa PAO1” value is 379 ± 48 nmol/1012 CFU.

As for `CC(C)(C)c1ccc(O)c(CNc2cccc3c2C(=O)NC3=O)c1` [SB-16-53], the “Intracell. Accum, P. aeruginosa PAO1” value is 263 ± 40 nmol/1012 CFU.

Another series has as its system A. baumannii 5075. In words: Compound intracellular accumulation in A. baumannii 5075. The series is classed as cell-based. The note with it: cells treated with 30 µM compound. As to the method: Determination of Compound Intracellular Accumulation. These experiments were carri ed out as reported previously,16 with modifications. Starter cultures o f P. aeruginosa PAO1 or A. baumannii 5075 were centrifuged for 10 min at 3148 x g and 4 °C, resuspended in 5 mL of fresh LB, diluted to OD 600 = 0.03 in fresh LB media (250 mL), and then cultured at 35 °C and 220 rpm for 4 h. Th e resultant cul ture was diluted to OD600 = 0.4 in 250 mL LB and centrifuged at 4 °C and 3470 x g for 10 min. The cell pellet was resuspended in 20 mL of PBS and transfer red to a 50 mL conical tube, where it was centrifuged at 4 °C and 3148 x g for 20 min. The cell pellet was resuspended in 15 mL of PBS supplemented with 0.05% (w/v) HPMC and the suspension was divided equally into two new conical tubes. One of th e tubes was treated with 150 µL of DMSO (control), while the second tube was treated with 150 µL of compound in DMSO solution to produce a compound final concentration of 30 µM or 15 µM. The resultant mixtures were incubated at 37 °C and 220 rpm for 15 min, placed on ice for 1 min, and then centrifuged at 3148 x g rpm and 4 °C for 10 min. The cell pellet was resuspended in 7.5 mL of ice -cold PBS and vortexed (10 s, five t imes). 200 µL of the cell suspension was used to plate and enumerate viable cells, and 800 µL of the suspension was lay ered onto 700 µL of chilled silicon oil contained in 1.5 mL Eppendo rf tubes and then centrifuged at 4 °C ( 900 x g) for 10 min, then again at 16,200 x g for 5 min to allow pass ag e of the cell suspension through the silicon oil layer. The aqueous and oil layers were removed, and the cell pellet was washed twice in PBS (800 μ L), each time transferring the cell suspension to a new Eppendorf tube and then centrifuging at 16,200 x g. The cell pellet was lysed in 800 µL methanol by vortexing followed by 10 min incubationat room temperatur e. The lysate suspension was pelleted, the supernatant was transferred to a new Eppendorf tube and then placed into a vacuum concentrator (Eppendorf 5301 Vacufuge) to evaporate the methanol (4 h). The dried […]
cell lysate was resuspend ed in 600 µL of DMSO and centrifuged at 16,200 x g rpm for 5 min at room temperature.
The clarified supernatant was titrated with small volumes of 250 µM compound stock, measuring the fluorescen ce after the addition of each aliquot with the aid of a Cary Eclipse Fluorescence Spectrometer (Agilent). The compound concentration was determined utilizing the standard addition method,17 and compound accumulation is reported as nmol compound/1012 CFU/mL. […]
Eclipse) fluorescen ce sp ectrophotometer. The flu orescen ce intensity of th e treated sample (FI)Tr and that of the untreated control (FI)Un was normalized to the corresponding OD600 and the ratio (FI/OD600)Tr / (F I/ OD600)Un is […]
The determination for each of the compounds was carri ed out in 5 biological replicates.
Determination of Siderophores Secreted by A. baumannii . The chromo azurol S (CAS) solution was prepared as previously reported18 with some modifications. The blue dye solution (0.6 g/L CAS ( ACROS Organics), 100 μM FeCl3·6H2O, and 0.73 g/L hexadecyltrimethylammonium bromide (HDTMA, ACROS Organics) was autoclaved and stored in the dark. The MM9-PIPES buffer solution (3 g/L KH2PO4, 5 g/L NaCl, 10 g/L NH4C l, 32.24 g/L piperazine -1,4-bis-2- ethanesulfonic acid (PIPES , Sigma Aldrich), pH 6.75) was sterilized using a 0.22 µm syringe filter (VWR). Prior to every experimen t, blue dye solution (0.5 mL) was mixed with 4.5 mL of MM9-PIPES solution. An overnight culture of A. baumannii 5075 was diluted to OD600 = 0.0001 with modified M63 media (no citric acid) supplemented with 4 μ M Fe and transferred to a 96-well plate, wh ere it was cul tured for 20
For the molecule `O=C1NC(=O)c2c(NCc3cccc(Br)c3O)cccc21` [EB-5-73], the “Intracell. Accum, A. baumannii 5075” value was found to be 201 ± 30 nmol/1012 CFU.

Turning to `Cc1cccc(CNc2cccc3c2C(=O)NC3=O)c1O` [EB-5-70], the “Intracell. Accum, A. baumannii 5075” value came to 99 ± 15 nmol/1012 CFU.

With `O=C1NC(=O)c2c(NCc3c(O)cccc3F)cccc21` [EB-5-71], the “Intracell. Accum, A. baumannii 5075” value is 495 ± 35 nmol/1012 CFU.

For the molecule `O=C1NC(=O)c2c(NCc3cc(F)ccc3O)cccc21` [JAG-5-7], the “Intracell. Accum, A. baumannii 5075” value worked out at 157 ± 54 nmol/1012 CFU.

As to `O=C1NC(=O)c2c(NCc3c(O)cccc3Cl)cccc21` [KM-5-29], the “Intracell. Accum, A. baumannii 5075” value is on record as 2614 ±134 nmol/1012 CFU.

As for `O=C1NC(=O)c2c(NCc3ccccc3O)cccc21` [Analog 11, 4-((2-Hydroxybenzyl)amino)isoindoline-1,3-dione], the “Intracell. Accum, A. baumannii 5075” value is reported as 55 ± 15 nmol/1012 CFU.

As to `O=C1NC(=O)c2c(NCc3cc(Br)c(O)cc3O)cccc21` [SB-16-137], the “Intracell. Accum, A. baumannii 5075” value came out at 86 ± 23 nmol/1012 CFU.

As to `O=C1NC(=O)c2c(NCc3cc(F)ccc3O)ccc(Br)c21` [SB-16-67], the “Intracell. Accum, A. baumannii 5075” value was 1173 ± 53 nmol/1012 CFU.

As for `O=C1NC(=O)c2c(NCc3cccc(F)c3O)cccc21` [EB-5-80], the “Intracell. Accum, A. baumannii 5075” value is 44 ± 6 nmol/1012 CFU.

As for `O=C1NC(=O)c2c(NCc3cccc(Cl)c3O)cccc21` [KM-5-30], the “Intracell. Accum, A. baumannii 5075” value is listed as 169 ± 62 nmol/1012 CFU.

Turning to `Cc1ccc(CNc2cccc3c2C(=O)NC3=O)c(O)c1` [EB-5-69], the “Intracell. Accum, A. baumannii 5075” value is 193 ± 33 nmol/1012 CFU.

For the origin of these results see paper PMC12261321, “Inhibitors of the Bacterioferritin Ferredoxin Complex Dysregulate Iron Homeostasis and Kill and Biofilm-Embedded Cells” (ACS Infectious Diseases, 2025).
